From article PMC8968665, “Verteporfin is a substrate-selective γ-secretase inhibitor that binds the amyloid precursor protein transmembrane domain” (The Journal of Biological Chemistry, 2022) come the findings set out here.

The stoichiometry N is the number of molecules, sites or subunits per partner or assembly.

The target of assay [1] is T1, γ-secretase cleavage of C100-Flag (C99) (Homo sapiens, UniProt P05067).
T1 construct: C100 is C99 with an added N-terminal Met residue; made in house
The assay can be described thus: γ-Secretase assay, C100-FLAG cleavage, AICD by anti-Flag Western blot. It counts as biochemical. As to conditions: 30 nM LY411,575, 2 µM C100-Flag, 1 nM γ-secretase, Fig. S6A lane 7. The procedure: The γ-secretase-dependent proteolysis assays with both substrates (C100-FLAG and HexaHis Notch 1 JM/TM) were performed in a weak zwitterionic detergent (CHAPSO, 3-[(3- cholamidopropyl)dimethylammonio]-2-hydroxy-1-propanesulfonate) solubilized conditions ([79], [80]). C100 is C99 with an added N-terminal Met residue. […] Proteolytic reactions were initiated by adding purified substrates (either C100-FLAG(79) or HexaHis-Notch 1 JM/TM(77)) and incubating at 37 °C (16 h for C100Flag and 4 h for HexaHis-Notch 1 JM/TM). Reactions were quenched with SDS, and the cleaved intracellular domain products (AICD-FLAG released from C100-FLAG or truncated intracellular domain (NICD) released from the proteolysis of Hexa-His Notch 1 JM/TM) were visualized by Western blot using specific primary antibodies, anti-FLAG antibody for FLAG-tagged AICD, and neoepitope-specific anti-V1744 antibody for NICD ([80], [83], [84]).
Background: Immunoblotting shows a protein as a band on a membrane.

Assay [2] addresses C99 (C-terminal 99 amino acid fragment of the human amyloid precursor protein), as used for IM-MS (human) (UniProt P05067). Briefly: native MS; native ion mobility-mass spectrometry (IM-MS); 20 uM C99 in 100X CMC LMPG or DDMB micelles, 200 mM ammonium acetate pH 4.5; DMSO or 0-50 uM verteporfin, incubated in the dark overnight; micelles dissociated in the instrument.

T1 sequence (P05067 672-770 limits assumed): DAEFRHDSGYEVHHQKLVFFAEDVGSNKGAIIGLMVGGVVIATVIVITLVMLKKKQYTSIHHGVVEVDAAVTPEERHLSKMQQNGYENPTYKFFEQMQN
Chain of C99 (C-terminal 99 amino acid fragment of the human amyloid precursor protein), as used for IM-MS (P05067 672-770): as the sequence (P05067 672-770 limits assumed) above

For the compound `C[C@H](NC(=O)[C@@H](O)c1cc(F)cc(F)c1)C(=O)N[C@@H]1C(=O)N(C)c2ccccc2-c2ccccc21` [LY411,575], the “C100-Flag cleavage efficiency (Western blot)” value in assay [1] is listed as “fully”.
“C99 (C-terminal 99 amino acid fragment of the human amyloid precursor protein), as used for IM-MS (from UniProt P05067 672-770) (domain or fragment)” had a stoichiometry N in assay [2] of 2.
